According to ChEMBL document CHEMBL5230104, “Systemic review on B-RafV600E mutation as potential therapeutic target for the treatment of cancer” (Eur J Med Chem, 2020):
pIC50: −log10 of the molar value. Values belong to the molecule of their own block, whether it stands above or below them.

Key:
[1] = In vivo inhibition of B-Raf in human A-375 cells xenografted in mouse model assessed as tumor growth inhibition; assay type: functional, cell-based
[2] = system: Melanoma cell line; assay: Antiproliferative activity against human Melanoma cell line; assay type: functional, cell-based
[3] = system: M14; assay: Antiproliferative activity against human M14 cells; assay type: functional, cell-based
[4] = system: COLO-829; assay: Antiproliferative activity against human COLO-829 cells by CellTiter-Glo Luminescent Cell Viability Assay; assay type: functional, cell-based
[5] = system: WM 266-4; assay: Antiproliferative activity against human WM266-4 cells by CellTiter-Glo Luminescent Cell Viability Assay; assay type: functional, cell-based
[6] = system: COLO 205; assay: Antiproliferative activity against human COLO 205 cells by CellTiter-Glo Luminescent Cell Viability Assay; assay type: functional, cell-based
[7] = system: COLO 205; assay: Antitumor activity against human COLO 205 cells xenografted in mouse model assessed as tumor growth inhibition at 30 mg/kg/day relative to control; assay type: functional; parameters: scale not given: the % may be the effect or the level left
[8] = system: A-375; assay: Antiproliferative activity against human A-375 cells by CellTiter-Glo Luminescent Cell Viability Assay; assay type: functional, cell-based
[9] = system: Malme-3M; assay: Antiproliferative activity against human Malme-3M cells harbouring B-Raf V600E mutant by SRB assay; assay type: functional, cell-based
[10] = system: CHL-1; assay: Antiproliferative activity against human CHL-1 cells harbouring wild type B-Raf by SRB assay; assay type: functional, cell-based
[11] = system: SK-MEL-2; assay: Antiproliferative activity against human SK-MEL-2 cells harbouring wild type B-Raf by SRB assay; assay type: functional, cell-based
[12] = system: A-375; assay: Antiproliferative activity against human A-375 cells harbouring B-Raf V600E mutant by SRB assay; assay type: functional, cell-based
[13] = system: A-375; assay: Antitumor activity against human A-375 cell xenografted in F344 nude rat model assessed as tumor growth inhibition by measuring T/C ratio at 9.7 mg/kg relative to control; assay type: functional
[14] = system: HMV-2 cell line; assay: Antiproliferative activity against human HMV-2 cells harbouring B-Raf G469V mutant by SRB assay; assay type: functional, cell-based
[15] = system: HMCB cell line; assay: Antiproliferative activity against human HMCB cells harbouring wild type B-Raf by SRB assay; assay type: functional, cell-based
[16] = system: A-375; assay: Antitumor activity against human A-375 cell xenografted in F344 nude rat model assessed as tumor growth inhibition by measuring T/C ratio at 24.1 mg/kg relative to control; assay type: functional
[17] = system: HT-144; assay: Antiproliferative activity against human HT-144 cells harbouring B-Raf V600E mutant by SRB assay; assay type: functional, cell-based
[18] = system: A-375; assay: Antiproliferative activity against human A-375 cells assessed as inhibition of cell viability; assay type: functional, cell-based
[19] = system: Malme-3M; assay: Antiproliferative activity against human Malme-3M cells assessed as inhibition of cell viability; assay type: functional, cell-based
[20] = system: A-375; assay: Antitumor activity against human A-375 cells xenografted in mouse model assessed as tumor growth inhibition at 50 mg/kg, iv relative to control; assay type: functional; parameters: scale not given: the % may be the effect or the level left
[21] = system: SK-MEL-28; assay: Antiproliferative activity against human SK-MEL-28 cells assessed as inhibition of cell viability; assay type: functional, cell-based
[22] = target: Serine/threonine-protein kinase B-raf (Homo sapiens, UniProt P15056, V600E); assay: Inhibition of B-Raf V600E mutant (unknown origin)

- pIC50 [2]: 5.00
SMILES: Cc1ccc(NC(=O)c2cccc(C(C)(C)C#N)c2)cc1Nc1ccc2ncn(C)c(=O)c2c1
- pIC50 [3]: 7.00

- pIC50 [11]: 7.22
- pIC50 [12]: 6.80
- pIC50 [17]: 6.96
SMILES: N#Cc1c(Oc2ccc(F)c(NC(=O)Cc3cccc(C(F)(F)F)c3)c2)ccc2nc(NC(=O)C3CC3)sc12
- pIC50 [9]: 7.30
- pIC50 [10]: 8.68
- T/C [13]: 2.1%
- pIC50 [14]: 6.70
- pIC50 [15]: 6.46
- T/C [16]: 12.1%

The remaining lines, values behind:

SMILES: OCCn1cc(-c2ccc3c(c2)CC/C3=N/O)c(-c2ccncc2)n1
- pIC50 [1]: 7.23

SMILES: CCCS(=O)(=O)Nc1ccc(F)c(C(=O)c2c[nH]c3ncc(Cl)cc23)c1F [PLX-4720]
- pIC50 [4]: 5.77
- pIC50 [5]: 5.82
- pIC50 [6]: 6.51
- Activity [7]: 90%
- pIC50 [8]: 6.30

SMILES: CN(C)CCOc1ccc(-c2n/c(=c3\ccc4c(c3)CCC=4N=O)c(=C3C=CNC=C3)[nH]2)cc1
- pIC50 [18]: 6.43
- pIC50 [19]: 6.82
- Activity [20]: 80%
- pIC50 [21]: 6.92
